Structures are written as SMILES. pIC50: −log10 of the molar value.

Data set [1] addresses Nav 1.7 (Homo sapiens (Human), UniProt Q15858). As to the kind of experiment: Nav 1.7 in vitro PX assay (PatchXpress whole cell voltage clamp). It counts as cell-based. The conditions noted are these: 293 cells, human Nav1.7, partially inactivated state; read-out: Nav1.7 PX IC50 IP. Summed up: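 HEK293 cells stably expressing human Nav1.7, whole-cell voltage clamp on PatchXpress, held at potential giving 20–50% inactivation; current elicited by 20 msec pulse to −10 mV.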

For data set [2], the target named is Nav 1.5 (Homo sapiens (Human), UniProt Q14524). As to the kind of experiment: Nav 1.5 in vitro PX assay (PatchXpress whole cell voltage clamp). It counts as cell-based. The conditions noted are these: 293 cells stably transfected with Nav 1.5; second part of table; read-out: Nav1.5 PX IC50. As to the method:
Nav 1.5 In Vitro PX Assay
293 cells stably transfected with Nav 1.5 were recorded in whole cell voltage clamp mode with the PatchXpress automated electrophysiology system according the manufacturer's specifications (Molecular Devices, LLC, Sunnyvale, Calif.). Cells were held at a holding potential of −50 mV to inactivate sodium channels. To elicit sodium currents the voltage was changed to −120 mV to recover a portion of the channels, followed by delivery of test pulses of 20 msec duration to 0 mV, at 0.1 Hz. A single concentration of test compound was applied to cells for a duration of 5 minutes. Peak sodium current was measured at the end of the compound addition period to determine percent inhibition. A minimum of two cells were tested per concentration. IC50 curves were fitted to percent inhibition as a function of concentration.

Chain of Nav 1.7 (Q15858 whole entry): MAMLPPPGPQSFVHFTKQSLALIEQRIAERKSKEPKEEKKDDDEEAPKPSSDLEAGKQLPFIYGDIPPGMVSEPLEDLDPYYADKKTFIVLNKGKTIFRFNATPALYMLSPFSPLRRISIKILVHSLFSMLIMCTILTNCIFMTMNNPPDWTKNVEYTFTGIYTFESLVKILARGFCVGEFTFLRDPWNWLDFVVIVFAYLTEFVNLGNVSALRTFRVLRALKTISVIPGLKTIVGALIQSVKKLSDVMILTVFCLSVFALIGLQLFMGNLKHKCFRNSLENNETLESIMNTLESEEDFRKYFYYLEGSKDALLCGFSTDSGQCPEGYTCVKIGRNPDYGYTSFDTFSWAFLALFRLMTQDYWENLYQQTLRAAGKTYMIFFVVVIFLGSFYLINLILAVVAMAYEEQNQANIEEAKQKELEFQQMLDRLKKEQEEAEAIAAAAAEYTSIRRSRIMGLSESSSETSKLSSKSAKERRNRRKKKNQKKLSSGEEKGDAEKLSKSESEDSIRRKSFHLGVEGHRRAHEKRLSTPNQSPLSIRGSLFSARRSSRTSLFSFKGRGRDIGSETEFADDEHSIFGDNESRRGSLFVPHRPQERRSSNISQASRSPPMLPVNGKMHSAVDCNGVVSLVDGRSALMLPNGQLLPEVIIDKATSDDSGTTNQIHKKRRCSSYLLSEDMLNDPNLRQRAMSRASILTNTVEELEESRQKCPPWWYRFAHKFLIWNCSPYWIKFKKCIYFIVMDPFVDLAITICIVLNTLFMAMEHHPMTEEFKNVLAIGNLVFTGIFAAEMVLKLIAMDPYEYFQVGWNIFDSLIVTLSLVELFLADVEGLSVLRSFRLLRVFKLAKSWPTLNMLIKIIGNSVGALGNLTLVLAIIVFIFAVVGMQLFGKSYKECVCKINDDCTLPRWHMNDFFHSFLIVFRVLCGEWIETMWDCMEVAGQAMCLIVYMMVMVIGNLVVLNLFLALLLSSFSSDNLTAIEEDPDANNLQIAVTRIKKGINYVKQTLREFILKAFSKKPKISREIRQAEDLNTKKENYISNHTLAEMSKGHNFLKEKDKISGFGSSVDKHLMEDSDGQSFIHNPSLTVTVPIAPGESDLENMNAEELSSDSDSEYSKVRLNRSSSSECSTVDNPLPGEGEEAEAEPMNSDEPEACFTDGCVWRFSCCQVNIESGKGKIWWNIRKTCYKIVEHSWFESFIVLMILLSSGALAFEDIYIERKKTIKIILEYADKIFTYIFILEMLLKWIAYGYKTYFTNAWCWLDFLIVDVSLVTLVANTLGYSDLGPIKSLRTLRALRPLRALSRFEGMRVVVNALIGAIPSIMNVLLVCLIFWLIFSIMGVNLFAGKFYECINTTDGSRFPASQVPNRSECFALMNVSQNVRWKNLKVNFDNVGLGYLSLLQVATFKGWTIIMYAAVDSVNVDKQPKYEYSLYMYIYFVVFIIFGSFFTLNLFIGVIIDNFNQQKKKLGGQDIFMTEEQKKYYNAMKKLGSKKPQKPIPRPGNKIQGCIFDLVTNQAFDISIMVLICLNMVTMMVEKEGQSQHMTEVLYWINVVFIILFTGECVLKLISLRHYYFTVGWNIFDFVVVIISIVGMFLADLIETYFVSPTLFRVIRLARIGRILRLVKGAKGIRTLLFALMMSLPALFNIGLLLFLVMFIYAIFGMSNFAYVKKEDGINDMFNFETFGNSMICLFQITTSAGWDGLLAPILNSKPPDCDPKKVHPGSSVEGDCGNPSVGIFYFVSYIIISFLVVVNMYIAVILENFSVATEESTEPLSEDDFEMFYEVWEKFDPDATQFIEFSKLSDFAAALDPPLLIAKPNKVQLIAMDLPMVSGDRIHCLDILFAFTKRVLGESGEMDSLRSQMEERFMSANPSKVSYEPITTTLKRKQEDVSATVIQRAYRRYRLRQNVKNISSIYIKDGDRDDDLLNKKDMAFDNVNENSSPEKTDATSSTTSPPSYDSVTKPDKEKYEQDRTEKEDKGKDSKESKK
Chain of Nav 1.5 (Q14524 whole entry): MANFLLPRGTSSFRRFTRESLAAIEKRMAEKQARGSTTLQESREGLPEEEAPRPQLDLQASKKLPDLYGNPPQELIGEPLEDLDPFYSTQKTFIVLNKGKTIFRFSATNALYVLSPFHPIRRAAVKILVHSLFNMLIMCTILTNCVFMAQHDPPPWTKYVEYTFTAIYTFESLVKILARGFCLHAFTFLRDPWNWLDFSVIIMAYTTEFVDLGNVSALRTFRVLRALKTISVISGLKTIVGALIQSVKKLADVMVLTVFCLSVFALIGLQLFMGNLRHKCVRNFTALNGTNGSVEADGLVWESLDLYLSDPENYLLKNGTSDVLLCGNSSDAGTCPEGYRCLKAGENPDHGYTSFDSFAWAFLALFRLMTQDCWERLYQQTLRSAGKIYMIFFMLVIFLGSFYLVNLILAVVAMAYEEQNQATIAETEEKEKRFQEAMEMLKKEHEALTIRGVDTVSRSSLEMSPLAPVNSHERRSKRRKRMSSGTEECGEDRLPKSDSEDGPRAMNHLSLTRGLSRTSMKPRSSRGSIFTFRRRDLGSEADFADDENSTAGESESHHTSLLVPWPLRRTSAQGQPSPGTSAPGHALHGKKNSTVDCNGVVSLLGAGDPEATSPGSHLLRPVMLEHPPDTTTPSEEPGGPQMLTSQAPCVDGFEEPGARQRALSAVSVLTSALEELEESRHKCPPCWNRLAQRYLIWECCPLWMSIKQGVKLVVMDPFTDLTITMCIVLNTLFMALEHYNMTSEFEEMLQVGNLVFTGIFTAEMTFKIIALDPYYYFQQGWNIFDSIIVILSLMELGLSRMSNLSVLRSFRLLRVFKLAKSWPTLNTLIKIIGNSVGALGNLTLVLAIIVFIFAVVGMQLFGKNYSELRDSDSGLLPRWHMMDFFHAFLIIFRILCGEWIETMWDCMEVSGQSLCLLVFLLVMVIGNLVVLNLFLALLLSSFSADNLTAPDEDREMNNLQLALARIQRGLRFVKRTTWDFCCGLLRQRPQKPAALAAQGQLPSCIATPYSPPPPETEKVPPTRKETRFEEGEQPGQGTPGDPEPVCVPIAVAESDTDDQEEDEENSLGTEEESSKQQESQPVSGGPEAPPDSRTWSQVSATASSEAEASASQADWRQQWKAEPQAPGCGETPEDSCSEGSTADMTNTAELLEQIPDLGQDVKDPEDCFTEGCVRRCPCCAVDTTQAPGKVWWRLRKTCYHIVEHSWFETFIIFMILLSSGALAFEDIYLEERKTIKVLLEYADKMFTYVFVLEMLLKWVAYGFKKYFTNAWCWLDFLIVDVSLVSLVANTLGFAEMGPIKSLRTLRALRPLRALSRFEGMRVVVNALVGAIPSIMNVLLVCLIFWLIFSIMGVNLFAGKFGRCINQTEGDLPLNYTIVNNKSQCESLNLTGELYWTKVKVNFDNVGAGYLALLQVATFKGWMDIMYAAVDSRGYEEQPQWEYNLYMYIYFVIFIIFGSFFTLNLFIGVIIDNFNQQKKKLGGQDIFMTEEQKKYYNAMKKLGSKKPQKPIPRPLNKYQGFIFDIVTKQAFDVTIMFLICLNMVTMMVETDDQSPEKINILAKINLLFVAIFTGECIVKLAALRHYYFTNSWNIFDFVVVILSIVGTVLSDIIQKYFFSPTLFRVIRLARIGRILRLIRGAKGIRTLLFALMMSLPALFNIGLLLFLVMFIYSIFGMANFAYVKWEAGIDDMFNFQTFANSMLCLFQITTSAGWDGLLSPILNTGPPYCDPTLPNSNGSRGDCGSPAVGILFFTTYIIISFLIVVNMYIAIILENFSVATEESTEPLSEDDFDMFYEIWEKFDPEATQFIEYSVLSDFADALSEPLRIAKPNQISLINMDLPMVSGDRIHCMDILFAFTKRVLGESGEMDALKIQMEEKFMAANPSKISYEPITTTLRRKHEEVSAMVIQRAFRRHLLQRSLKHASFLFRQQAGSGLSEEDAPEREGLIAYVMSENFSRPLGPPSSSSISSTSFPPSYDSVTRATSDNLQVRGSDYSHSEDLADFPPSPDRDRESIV

With `COc1cc(-c2cc(F)ccc2F)ccc1-c1nccc2cc(S(=O)(=O)Nc3ccncn3)ccc12` [Example 446, 1-(2′,5′-DIFLUORO-3-METHOXY-[1,1′-BIPHENYL]-4-YL)-N-(PYRIMIDIN-4-YL)ISOQUINOLINE-6-SULFONAMIDE], the pIC50 (in general, the negative decadic logarithm of the IC50, by convention in mol/L) is 6.82 in data set [1] and under 4.52 in data set [2].
The corresponding values for `COc1ccc(-c2cccc(F)c2)cc1-c1n[nH]c(=O)c2cc(S(=O)(=O)Nc3ccncn3)ccc12` [Example 509, 1-(3′-FLUORO-4-METHOXY-[1,1′-BIPHENYL]-3-YL)-4-OXO-N-(PYRIMIDIN-4-YL)-3,4-DIHYDROPHTHALAZINE-6-SULFONAMIDE] are 6.66 and under 4.52.
Regarding `COc1cc(-c2ccc(F)c(Cl)c2)ccc1-c1nccc2cc(S(=O)(=O)Nc3ccncn3)ccc12` [Example 490, 1-(3′-CHLORO-4′-FLUORO-3-METHOXY-[1,1′-BIPHENYL]-4-YL)-N-(PYRIMIDIN-4-YL)ISOQUINOLINE-6-SULFONAMIDE], the pIC50 in data set [1] is 7.21; in data set [2], under 4.52.
The corresponding values for `COc1cc(-c2ccc(C)c(Cl)c2)ccc1-c1nccc2cc(S(=O)(=O)Nc3ccncn3)ccc12` [Example 494, 1-(3′-CHLORO-3-METHOXY-4′-METHYL-[1,1′-BIPHENYL]-4-YL)-N-(PYRIMIDIN-4-YL)ISOQUINOLINE-6-SULFONAMIDE] are 7.11 and under 4.52.
Taken in the same sequence, the figures for `Cc1cc(-c2cccc(F)c2)ccc1-c1nccc2cc(S(=O)(=O)Nc3ccncn3)ccc12` [Example 358, 1-(3′-FLUORO-3-METHYL-[1,1′-BIPHENYL]-4-YL)-N-(PYRIMIDIN-4-YL)ISOQUINOLINE-6-SULFONAMIDE] were 6.40 and under 4.52.
For `COc1cc(-c2ccccc2C)ccc1-c1nccc2cc(S(=O)(=O)Nc3ccncn3)ccc12` [Example 441, 1-(3-METHOXY-2′-METHYL-[1,1′-BIPHENYL]-4-YL)-N-(PYRIMIDIN-4-YL)ISOQUINOLINE-6-SULFONAMIDE], the results for the pIC50 in data set [1] and in data set [2] were 7.11 and under 4.52, respectively.
The corresponding values for `COc1cc(-c2cc(F)cc(Cl)c2)ccc1-c1nccc2cc(S(=O)(=O)Nc3ccncn3)ccc12` [Example 491, 1-(3′-CHLORO-5′-FLUORO-3-METHOXY-[1,1′-BIPHENYL]-4-YL)-N-(PYRIMIDIN-4-YL)ISOQUINOLINE-6-SULFONAMIDE] are 7.00 and under 4.52.
Taken in the same sequence, the figures for `COc1cc(-c2cccc(F)c2)c(C#N)cc1-c1nccc2cc(S(=O)(=O)Nc3ccon3)ccc12` [Example 342, 1-(2-CYANO-3′-FLUORO-5-METHOXY-[1,1′-BIPHENYL]-4-YL)-N-(ISOXAZOL-3-YL)ISOQUINOLINE-6-SULFONAMIDE] were 6.91 and under 4.52.
Taken in the same sequence, the figures for `COc1cc(Cl)ccc1-c1ncnc2cc(S(=O)(=O)Nc3ncns3)ccc12` [Example 524, 4-(4-CHLORO-2-METHOXYPHENYL)-N-(1,2,4-THIADIAZOL-5-YL)QUINAZOLINE-7-SULFONAMIDE] were 7.00 and under 4.52.
On to `COc1cc(C(F)(F)F)ccc1-c1ncc(F)c2cc(S(=O)(=O)Nc3ncns3)ccc12` [Example 392, 4-FLUORO-1-(2-METHOXY-4-(TRIFLUOROMETHYL)PHENYL)-N-(1,2,4-THIADIAZOL-5-YL)ISOQUINOLINE-6-SULFONAMIDE], for which the results for the pIC50 in data set [1] and in data set [2] were 6.95 and under 4.52, respectively.
The corresponding values for `COc1ccc(-c2cccc(C(F)(F)F)c2)cc1-c1nccc2cc(S(=O)(=O)Nc3nncs3)ccc12` [Example 344, 1-(4-METHOXY-3′-(TRIFLUOROMETHYL)-[1,1′-BIPHENYL]-3-YL)-N-(1,3,4-THIADIAZOL-2-YL)ISOQUINOLINE-6-SULFONAMIDE] are 7.47 and under 4.52.
Taken in the same sequence, the figures for `COc1cc(-c2cccc(F)c2)c(C#N)cc1-c1nccc2cc(S(=O)(=O)Nc3ncns3)ccc12` [Example 340, 1-(2-CYANO-3′-FLUORO-5-METHOXY-[1,1′-BIPHENYL]-4-YL)-N-(1,2,4-THIADIAZOL-5-YL)ISOQUINOLINE-6-SULFONAMIDE] were 7.25 and under 4.52.
The corresponding values for `COc1ccc(Cl)cc1-c1n[nH]c(=O)c2cc(S(=O)(=O)Nc3ncc(F)s3)ccc12` [Example 507, 1-(5-CHLORO-2-METHOXYPHENYL)-N-(5-FLUOROTHIAZOL-2-YL)-4-OXO-3,4-DIHYDROPHTHALAZINE-6-SULFONAMIDE] are 6.75 and under 4.52.
As to `COc1ccc(Cl)cc1-c1nccc2cc(S(=O)(=O)Nc3ncns3)ccc12` [Example 346, 1-(5-CHLORO-2-METHOXYPHENYL)-N-(1,2,4-THIADIAZOL-5-YL)ISOQUINOLINE-6-SULFONAMIDE], the pIC50 is 6.88 in data set [1] and under 4.52 in data set [2].
Taken in the same sequence, the figures for `COc1cc(-c2cccc(F)c2)c(Cl)cc1-c1nccc2cc(S(=O)(=O)Nc3ccon3)ccc12` [Example 335, 1-(2-CHLORO-3′-FLUORO-5-METHOXY-[1,1′-BIPHENYL]-4-YL)-N-(ISOXAZOL-3-YL)ISOQUINOLINE-6-SULFONAMIDE] were 7.28 and under 4.52.
Regarding `COc1cc(Cl)c(C#N)cc1-c1nccc2cc(S(=O)(=O)Nc3ncns3)ccc12` [Example 336, 1-(4-CHLORO-5-CYANO-2-METHOXYPHENYL)-N-(1,2,4-THIADIAZOL-5-YL)ISOQUINOLINE-6-SULFONAMIDE], the negative logarithm of the IC50 (pIC50) was 6.81 in data set [1] and under 4.52 in data set [2].
The corresponding values for `COc1ccccc1-c1ncc(F)c2cc(S(=O)(=O)Nc3ncns3)ccc12` [Example 393, 4-FLUORO-1-(2-METHOXYPHENYL)-N-(1,2,4-THIADIAZOL-5-YL)ISOQUINOLINE-6-SULFONAMIDE] are 6.52 and under 4.52.
Taken in the same sequence, the figures for `COc1cc(-c2c(F)cccc2F)ccc1-c1nccc2cc(S(=O)(=O)Nc3ccncn3)ccc12` [Example 447, 1-(2′,6′-DIFLUORO-3-METHOXY-[1,1′-BIPHENYL]-4-YL)-N-(PYRIMIDIN-4-YL)ISOQUINOLINE-6-SULFONAMIDE] were 6.63 and under 4.52.
The corresponding values for `COc1cc(C(F)F)c(Cl)cc1-c1ncnc2cc(S(=O)(=O)Nc3nccs3)ccc12` [Example 270, 4-(5-CHLORO-4-(DIFLUOROMETHYL)-2-METHOXYPHENYL)-N-(THIAZOL-2-YL)QUINAZOLINE-7-SULFONAMIDE] are 6.82 and 5.13.
On to `COc1cc(Cl)c(Cl)cc1-c1nccc2cc(S(=O)(=O)Nc3nccs3)ccc12` [Example 177, 1-(4,5-DICHLORO-2-METHOXYPHENYL)-N-(THIAZOL-2-YL)ISOQUINOLINE-6-SULFONAMIDE], for which the pIC50 in data set [1] is 6.30; in data set [2], under 4.52.
Taken in the same sequence, the figures for `COc1cc(-c2cc(F)cc(F)c2)ccc1-c1nccc2cc(S(=O)(=O)Nc3cc(C)ncn3)ccc12` [Example 371, 1-(3′,5′-DIFLUORO-3-METHOXY-[1,1′-BIPHENYL]-4-YL)-N-(6-METHYLPYRIMIDIN-4-YL)ISOQUINOLINE-6-SULFONAMIDE] were 6.26 and under 4.52.
The corresponding values for `COc1cc(F)ccc1-c1ncc(F)c2cc(S(=O)(=O)Nc3ncns3)ccc12` [Example 394, 4-FLUORO-1-(4-FLUORO-2-METHOXYPHENYL)-N-(1,2,4-THIADIAZOL-5-YL)ISOQUINOLINE-6-SULFONAMIDE] are 6.47 and under 4.52.
Taken in the same sequence, the figures for `COc1cc(C(F)F)c(F)cc1-c1ncnc2cc(S(=O)(=O)Nc3cscn3)ccc12` [Example 513, 4-(4-(difluoromethyl)-5-fluoro-2-methoxyphenyl)-N-(thiazol-4-yl)quinazoline-7-sulfonamide] were 6.11 and under 4.52.
As for `COc1cc(Oc2cccc(F)c2)ccc1-c1nccc2cc(S(=O)(=O)Nc3ccncn3)ccc12` [Example 464, 1-(4-(3-FLUOROPHENOXY)-2-METHOXYPHENYL)-N-(PYRIMIDIN-4-YL)ISOQUINOLINE-6-SULFONAMIDE], the pIC50 was 6.42 in data set [1] and under 4.52 in data set [2].
Taken in the same sequence, the figures for `COc1cc(-c2cccc(F)c2)c(C#N)cc1-c1nccc2cc(S(=O)(=O)Nc3nncs3)ccc12` [Example 341, 1-(2-CYANO-3′-FLUORO-5-METHOXY-[1,1′-BIPHENYL]-4-YL)-N-(1,3,4-THIADIAZOL-2-YL)ISOQUINOLINE-6-SULFONAMIDE] were 7.16 and under 4.52.
The corresponding values for `COc1cc(-c2cccc(F)c2)c(F)cc1-c1nccc2cc(S(=O)(=O)Nc3nncs3)ccc12` [Example 366, 1-(2,3′-DIFLUORO-5-METHOXY-[1,1′-BIPHENYL]-4-YL)-N-(1,3,4-THIADIAZOL-2-YL)ISOQUINOLINE-6-SULFONAMIDE] are 7.32 and under 4.52.
On to `COc1cc(-c2ccc(F)c(C#N)c2)ccc1-c1nccc2cc(S(=O)(=O)Nc3ccncn3)ccc12` [Example 486, 1-(3′-CYANO-4′-FLUORO-3-METHOXY-[1,1′-BIPHENYL]-4-YL)-N-(PYRIMIDIN-4-YL)ISOQUINOLINE-6-SULFONAMIDE], for which the values for the pIC50 in data set [1] and in data set [2] were 6.47 and under 4.52, respectively.
Take `COc1cc(-c2cccc(F)c2F)ccc1-c1nccc2cc(S(=O)(=O)Nc3ccncn3)ccc12` [Example 444, 1-(2′,3′-difluoro-3-methoxy-[1,1′-biphenyl]-4-yl)-N-(pyrimidin-4-yl)isoquinoline-6-sulfonamide]: the pIC50 in data set [1] is 6.73; in data set [2], under 4.52.
